The text below walks through data of patent publication US20130156845A1, “LIPID FORMULATED SINGLE STRANDED RNA” (ALNYLAM PHARMACEUTICALS, INC., priority 2010, published 2013).

Read-outs that look alike come from different tables or passages of the source. Strand notation (5' to 3'): a small letter for the sugar, then the base; units joined by * are phosphorothioate-linked, units joined directly phosphodiester-linked; [ ] holds rarer units or linkages, { } end groups; capitals alone tell only the bases. [FEt-N] = nucleoside with 2'-OCH2CH2F (FEt) sugar (N: the base); [tcDNA-N] = tricyclo-DNA nucleoside (N: the base); [FEt] = thymidine with 2'-OCH2CH2F (FEt) sugar; e = 2'-O-(2-methoxyethyl) (MOE); m = 2'-O-methyl; r = 2'-OH (RNA); {P} = phosphate; f = 2'-fluoro

The test system of one data set is PTEN. Put plainly: PTEN mRNA reduction in HeLa cells, dose response (Example 72). Conditions: percent inhibition of PTEN mRNA, 0.167-50 nM. The format is cell-based, human. Here is the method: In accordance with the present disclosure, oligomeric compounds were synthesized and tested for their ability to reduce PTEN expression over a range of doses. Human HeLa cells were treated with the following oligomeric compounds. A dose comparison was evaluated with dose concentrations of 0.167, 0.5, 1.5, 5, 15 and 50 nM using methods described herein. Expression levels of PTEN were determined using real-time PCR and normalized to RIBOGREEN™ using methods described herein. The percent inhibition of PTEN mRNA was determined and the resulting dose-response curves were used to determine the IC50. The IC50s are listed below.

The test system of another data set is human PTEN. Put plainly: PTEN expression in HeLa cells, ssRNAs vs siRNAs (Example 62). Type of data set: cell-based. The protocol: A series of 5′ and 2′ bis-substituted modified oligomeric compounds were prepared as single strand RNAs (ssRNAs). The antisense (AS) strands listed below were designed to target human PTEN, and each was also assayed as part of a duplex with the same sense strand (ISIS 341401, shown below) for their ability to reduce PTEN expression levels. HeLa cells were treated with the single stranded or double stranded oligomeric compounds created with the antisense compounds shown below using methods described herein. The IC50's were calculated using the linear regression equation generated by plotting the normalized mRNA levels to the log of the concentrations used.

A short description of data set [1]: Phosphate stability in mouse serum (Example 68).
Experimental: Single-stranded oligomeric compounds were tested for stability in mouse serum.
The mark [2] stands for this setting: antisense strand duplexed with sense strand ISIS 341401, PTEN mRNA, read-out: EC50 (nM) siRNA.
[3] abbreviates: full compound with intact phosphorous moiety, first table.

Take “P-TdUfGfUfCfUfCfUfGfGfUfCfCfUfUfAfCfUfUfAeAe (antisense TUGUCUCUGGUCCUUACUUAA; chemistry not fully specified) [ISIS 435394, modified ssRNA targeting PTEN]”: the half-inhibitory concentration (IC50) in the data set on PTEN stood at 18.1 nM. In the data set on PTEN, “P-TefUfGfUfCfUfCfUfGfGfUfCfCfUfUfAfCfUfUfAeAe (antisense {P}-[FEt-T]fUfGfUfCfUfCfUfGfGfUfCfCfU*fU*fA*fC*fU*fU*eA*eA) [ISIS 418033, modified ssRNA targeting PTEN]” came in with an IC50 of 11 nM. As for “Pz-^meUhUfGmUfCmUfCmUfGmGfUmCfCmUfUmAfCmUfUmAeAe (antisense UUGUCUCUGGUCCUUACUUAA; 5'-difluoromethylenephosphonate, 2'-F/2'-OMe alternating, MOE 3' end, first nucleoside modification undefined, further chemistry not given here) [ISIS 460646, modified ssRNA targeting PTEN, 5′-difluoromethylenephosphonate]”, the concentration for a half-maximal effect (EC50) in the data set on human PTEN (setting [2]) is 0.8 nM.

In turn, “P-UeUfGfUfCfUfCfUfGfGfUfCfCfUfUfAfCfUfUfAeAe (antisense UUGUCUCUGGUCCUUACUUAA; sugars from the 5' end e1 f18 e2, 5' {P}, backbone and T or U not given here) [ISIS 418030, modified ssRNA targeting PTEN]” yielded a 50% inhibitory concentration (IC50) in the data set on PTEN of 8.5 nM. This lies in the single-digit nanomolar range. Take “5′-Po-TjUfoGfoUfoCfoUfoCfoUfoGfoGfoUfoCfoCfoUfsUfsAfsCfsUfsUfsAesAe (antisense {P}-[tcDNA-T]fUfGfUfCfUfCfUfGfGfUfCfCfU*fU*fA*fC*fU*fU*eA*eA) [ISIS 418130]”: the T1/2 full length in data set [1] (setting [3]) is 5.3 h. Turning to “P-UmUfGmUfCmUfCmUfGmGfUmCfCmUfUmAfCmUfUmAeAe (antisense UUGUCUCUGGUCCUUACUUAA; sugars from the 5' end mfmfmfmfmfmfmfmfmfmee, 5' {P}, backbone not given here) [ISIS 414291, modified ssRNA targeting PTEN]”, half-maximal inhibition with PTEN (listed as 414291) (IC50) was put at 13 nM. Substance “5′-Ps-UdUfoGfoUfoCfoUfoCfoUfoGfoGfoUfoCfoCfoUfsUfsAfsCfsUfsUf (antisense UUGUCUCUGGUCCUUACUU; 5'-thiophosphate, 2'-F modifications, chemistry not fully specified) [ISIS 430601]” returned a T1/2 full length in data set [1] (setting [3]) of 3.7 h. “P-TUfGfUfCfUfCfUfGfGfUfCfCfUfUfAfCfUfUfAeAe (antisense TUGUCUCUGGUCCUUACUUAA; 5'-phosphate, chemical modifications, chemistry not fully specified) [ISIS 418131, modified ssRNA targeting PTEN]” returned a concentration for half-maximal inhibition (IC50) in the data set with PTEN of 3.4 nM. As for “5′-Po-UiUfoGfoUfoCfoUfoCfoUfoGfoGfoUfoCfoCfoUfsUfsAfsCfsUfsUfsAesAe (antisense UUGUCUCUGGUCCUUACUUAA; 5'-phosphate, N-methoxyamino BNA, 2'-F, MOE modifications, chemistry not fully specified) [ISIS 418129]”, the T1/2 full length in data set [1] (setting [3]) turned out to be 5.4 h. As to “Pz-^meUmUfGmUfCmUfCmUfGmGfUmCfCmUfUmAfCmUfUmAeAe (antisense UUGUCUCUGGUCCUUACUUAA; 5'-difluoromethylenephosphonate, 2'-F/2'-OMe alternating, MOE 3' end, first nucleoside modification undefined, further chemistry not given here) [ISIS 462606, modified ssRNA targeting PTEN, 5′-difluoromethylenephosphonate]”, the 50% effective concentration (EC50) with human PTEN (antisense strand duplexed with sense strand ISIS 341401, PTEN mRNA, listed as 462606 (AS), read-out: EC50 (nM) siRNA) is 0.4 nM. Take “Pz-^meUmUfGmUfCmUfCmUfGmGfUmCfCmUfUmAfCmUfUmAeAe (antisense UUGUCUCUGGUCCUUACUUAA; 5'-difluoromethylenephosphonate, 2'-F/2'-OMe alternating, MOE 3' end, first nucleoside modification undefined, further chemistry not given here) [ISIS 462607, modified ssRNA targeting PTEN, 5′-difluoromethylenephosphonate]”: in the data set with human PTEN (antisense strand duplexed with sense strand ISIS 341401, PTEN mRNA, listed as 462607 (AS), read-out: EC50 (nM) siRNA), the concentration giving a half-maximal response (EC50) was 1 nM. As for “UUGUCUCUGGUCCUUACUU (rUrUrGrUrCrUrCrUrGrGrUrC*rC*rU*rU*rA*rC*rU*rU) [ISIS 359455, unmodified RNA antisense strand targeting PTEN]”, in the data set on human PTEN (setting [2]), the EC50 was found to be 0.3 nM.

Take “P-UfUfGfUfCfUfCfUfGfGfUfCfCfUfUfAfCfUfUf (antisense {P}-fUfUfGfUfCfUfCfUfGfGfUfC*fC*fU*fU*fA*fC*fU*fU) [ISIS 386187, modified ssRNA targeting PTEN]”: the EC50 in the data set on human PTEN (setting [2]) came to 0.3 nM; with human PTEN (single stranded antisense compound, PTEN mRNA, read-out: EC50 (nM) ssRNA) it was 15 nM. Substance “P-TeUfGfUfCfUfCfUfGfGfUfCfCfUfUfAfCfUfUfAeAe (antisense TUGUCUCUGGUCCUUACUUAA; sugars from the 5' end e1 f18 e2, 5' {P}, backbone not given here) [ISIS 418031, modified ssRNA targeting PTEN]” came in with an IC50 in the data set with PTEN of 3.9 nM. This lies in the single-digit nanomolar range.

In the data set on PTEN (listed as 416598), “P-UmUfGmUfCmUfCmUfGmGfUmCfCmUfUmAfCmUfUmAeAe (antisense UUGUCUCUGGUCCUUACUUAA; sugars from the 5' end mfmfmfmfmfmfmfmfmfmee, 5' {P}, backbone not given here) [ISIS 416598, modified ssRNA targeting PTEN]” showed a half-inhibitory concentration (IC50) of 6.8 nM. Consider “5′-Po-ThUfoGfoUfoCfoUfoCfoUfoGfoGfoUfoCfoCfoUfsUfsAfsCfsUfsUfsAesAe (antisense TUGUCUCUGGUCCUUACUUAA; 5'-phosphate, 2'-F, MOE modifications, chemistry not fully specified) [ISIS 440141]”, for which, in data set [1] (four compounds tested separately, second table), the T1/2 full length came out at 0.3 h. In the case of “P-TefUfGfUfCfUfCfUfGfGfUfCfCfUfUfAfCfUfUfAeAe (antisense TUGUCUCUGGUCCUUACUUAA; sugars from the 5' end [FEt]1 f18 e2, 5' {P}, backbone not given here; further chemistry not fully specified) [ISIS 418032, modified ssRNA targeting PTEN]”, half-maximal inhibition in the data set on PTEN (IC50) was put at 2.9 nM. “P-TdUfGmUfCmUfCmUfGmGfUmCfCfUfUfAfCfUfUfAeAe (antisense TUGUCUCUGGUCCUUACUUAA; 5'-phosphate, chemical modifications, chemistry not fully specified) [ISIS 435399, modified ssRNA targeting PTEN]”: half-maximal inhibition with PTEN (IC50) required 2 nM.
